# Tested on: parental BaF3 cells
# Assay: cells
# Details: Mus musculus, BaF3, 72 h
# Method: Parental BaF3 cells (“BaF3”) were also tested as a normal, non-ALK-dependent cell control.
compound,measurement,value
C[C@@H](Oc1cc(-c2cnn(C3CCNCC3)c2)cnc1N)c1c(Cl)ccc(F)c1Cl [PF-02341066],IC50,1.46 µM

# Reference: US9458508B2, “Methods and compositions for the diagnosis and treatment of cancer resistant to anaplastic lymphoma kinase (ALK) kinase inhibitors” (St. Jude Children's Research Hospital, priority 2010, dated 2016)
